How the values were obtained:
Carbonic anhydrase = target: T1, Carbonic anhydrase (Candida albicans (strain SC5314 / ATCC MYA-2876) (Yeast), UniProt Q5AJ71)
T1 sequence (Q5AJ71 whole entry): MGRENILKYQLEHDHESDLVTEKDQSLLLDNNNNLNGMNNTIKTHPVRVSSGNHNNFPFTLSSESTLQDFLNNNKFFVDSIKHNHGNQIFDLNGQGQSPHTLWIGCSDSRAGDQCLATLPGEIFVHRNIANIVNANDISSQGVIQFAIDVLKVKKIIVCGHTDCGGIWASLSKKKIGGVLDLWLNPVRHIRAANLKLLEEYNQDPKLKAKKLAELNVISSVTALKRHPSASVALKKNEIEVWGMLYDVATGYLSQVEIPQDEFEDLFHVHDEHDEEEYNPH

Carbonic anhydrase 1 = Carbonic anhydrase 1 (Homo sapiens, UniProt P00915)
Carbonic anhydrase 2 = Carbonic anhydrase 2 (Homo sapiens, UniProt P00918)

Sequence of Carbonic anhydrase 1 (P00915 whole entry): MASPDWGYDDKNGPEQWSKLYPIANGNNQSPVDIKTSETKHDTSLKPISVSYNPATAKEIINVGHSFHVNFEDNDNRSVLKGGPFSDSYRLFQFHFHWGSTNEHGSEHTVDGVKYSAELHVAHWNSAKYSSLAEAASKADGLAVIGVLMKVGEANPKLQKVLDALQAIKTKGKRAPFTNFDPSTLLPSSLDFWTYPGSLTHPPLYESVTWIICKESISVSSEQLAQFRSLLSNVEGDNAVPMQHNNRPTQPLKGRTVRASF

Row | Compound | Ki (Carbonic anhydrase) [µM] | Ki (Carbonic anhydrase 1) [µM] | Ki (Carbonic anhydrase 2) [µM]
1 | OB(O)c1ccc(-c2ccccc2)cc1 [BIPHENYLBORONIC ACID] | 7.8 |  | 
2 | OB(O)c1ccc(Br)cc1 | 15.9 | 11.7 | 7
3 | OB(O)/C=C/Cc1ccccc1 | 633 | 8.6 | 18.1
4 | Cc1ccc(B(O)O)cc1 [TOLYL BORONIC ACID] | 9 | 278 | 10.8
5 | OB(O)c1ccccc1 [PHENYLBORONIC ACID] |  | 1560 | 1050
6 | OB(O)/C=C/c1ccc(-c2ccccc2)cc1 | 42.3 |  | 373
7 | OB(O)c1ccc2ccccc2c1 | 9.3 |  | 
8 | OB(O)c1ccc(Oc2ccccc2)cc1 | 8.6 | 6 | 11.5
9 | COc1ccc(B(O)O)cc1 | 15.6 | 10.9 | 7.9
10 | OB(O)/C=C/c1ccccc1 [STYRYLBORONIC ACID] | 779 |  | 534
11 | OB(O)/C=C/c1ccc(-c2ccc(C(F)(F)F)cc2)cc1 | 5210 |  | 
12 | CCCCc1ccc(B(O)O)cc1 | 8 |  | 
13 | Cc1ccc(/C=C/B(O)O)cc1 | 460 |  | 617
